System: 12 single or co-culture in vitro tissue models of primary cells
Assay: Culture/co-culture cell model panel, extracellular biomarkers (DiscoveRx)
Assay type: cell-based, human
[1] = /Mphg Huvec+macrophages, 1.00E0 nM
[2] = /Mphg Huvec+macrophages, 1.00E1 nM
[3] = /Mphg Huvec+macrophages, 1.00E2 nM
[4] = /Mphg Huvec+macrophages, 1.00E3 nM
[5] = /Mphg Huvec+macrophages, 1.00E4 nM

For `Cn1ncc2cc(-c3cnc(N)c(Cl)c3N3CCC4(CCNC4=O)CC3)ccc21` [CMPD 3], the CCL2/MCP-1 (/HDFNo, 1.00E4 nM) was 0.044, the CD54/ICAM-1 (/HDFNo, 1.00E4 nM) was -0.029 and the CD106/VCAM-1 (/HDFNo, 1.00E4 nM) was 0.030. The “Collagen I” value (/HDFNo, 1.00E4 nM) was 0.106, the “Collagen III” value (/HDFNo, 1.00E4 nM) was 0.143 and the CCL2/MCP-1 [1] was 0.039. For the same molecule, the CCL3/MIP-1alpha [1] was 0.008, the CD40 [1] was 0.007 and the CD69 [1] was 0.028. The CD106/VCAM-1 [1] was 0.039, the CXCL8/IL-8 [1] was 0.039 and the IL-1alpha [1] was 0.034. For the same molecule, the M-CSF [1] was -0.015, the SRB [1] was -0.00253 and the SRB-Mphg [1] was 0.009. For the same molecule, the sIL-10 [1] was 0.013, the CCL2/MCP-1 [2] was -0.0006 and the CCL3/MIP-1alpha [2] was -0.011. For the same molecule, the CD40 [2] was -0.026, the CD69 [2] was 0.018 and the CD106/VCAM-1 [2] was 0.030. For the same molecule, the CXCL8/IL-8 [2] was -0.00563, the IL-1alpha [2] was 0.012 and the M-CSF [2] was -0.035. The SRB [2] was -0.012, the SRB-Mphg [2] was 0.002 and the sIL-10 [2] was 0.075. It also gave a CCL2/MCP-1 [3] of -0.061, a CCL3/MIP-1alpha [3] of -0.020 and a CD40 [3] of 0.012. The CD69 [3] was 0.043, the CD106/VCAM-1 [3] was 0.019 and the CXCL8/IL-8 [3] was -0.007. It also gave an IL-1alpha [3] of 0.025, a M-CSF [3] of -0.036 and an SRB [3] of -0.017. The SRB-Mphg [3] was 0.012, the sIL-10 [3] was -8.75e-5 and the CCL2/MCP-1 [4] was -0.073. The CCL3/MIP-1alpha [4] was -0.030, the CD40 [4] was -0.015 and the CD69 [4] was 0.039. It also gave a CD106/VCAM-1 [4] of -0.014, a CXCL8/IL-8 [4] of -0.034 and an IL-1alpha [4] of -0.038. It also gave a M-CSF [4] of -0.070, an SRB [4] of -0.017 and an SRB-Mphg [4] of -0.00429. The sIL-10 [4] was -0.159, the CCL2/MCP-1 [5] was -0.116 and the CCL3/MIP-1alpha [5] was 0.039. For the same molecule, the CD40 [5] was -0.005, the CD69 [5] was 0.023 and the CD106/VCAM-1 [5] was 0.022. The CXCL8/IL-8 [5] was 0.007, the IL-1alpha [5] was -0.039 and the M-CSF [5] was 0.009. For the same molecule, the SRB [5] was -0.059, the SRB-Mphg [5] was -0.013 and the sIL-10 [5] was -0.238. For the same molecule, the CCL2/MCP-1 (/TH2, 1.00E0 nM) was 0.045, the CCL26/Eotaxin-3 (/TH2, 1.00E0 nM) was -0.045 and the CD38 (/TH2, 1.00E0 nM) was 0.012. For the same molecule, the CD40 (/TH2, 1.00E0 nM) was -0.010, the CD69 (/TH2, 1.00E0 nM) was -0.0036 and the CD87/uPAR (/TH2, 1.00E0 nM) was -0.045. For the same molecule, the CD106/VCAM-1 (/TH2, 1.00E0 nM) was 0.030, the CXCL8/IL-8 (/TH2, 1.00E0 nM) was 0.048 and the CXCL9/MIG (/TH2, 1.00E0 nM) was 0.020. The “Collagen IV” value (/TH2, 1.00E0 nM) was 0.013, the “PBMC Cytotoxicity” value (/TH2, 1.00E0 nM) was -0.00216 and the SRB (/TH2, 1.00E0 nM) was -0.019. For the same molecule, the sIL-17A (/TH2, 1.00E0 nM) was 0.036, the sIL-17F (/TH2, 1.00E0 nM) was -0.022 and the CCL2/MCP-1 (/TH2, 1.00E1 nM) was 0.002. It also gave a CCL26/Eotaxin-3 (/TH2, 1.00E1 nM) of -0.124, a CD38 (/TH2, 1.00E1 nM) of -0.011 and a CD40 (/TH2, 1.00E1 nM) of -0.078. The CD69 (/TH2, 1.00E1 nM) was -0.011, the CD87/uPAR (/TH2, 1.00E1 nM) was -0.094 and the CD106/VCAM-1 (/TH2, 1.00E1 nM) was 0.034. For the same molecule, the CXCL8/IL-8 (/TH2, 1.00E1 nM) was -0.056, the CXCL9/MIG (/TH2, 1.00E1 nM) was 0.00749 and the “Collagen IV” value (/TH2, 1.00E1 nM) was 0.029. The “PBMC Cytotoxicity” value (/TH2, 1.00E1 nM) was -0.00148, the SRB (/TH2, 1.00E1 nM) was -0.057 and the sIL-17A (/TH2, 1.00E1 nM) was 0.095. It also gave a sIL-17F (/TH2, 1.00E1 nM) of -0.033, a CCL2/MCP-1 (/TH2, 1.00E2 nM) of -0.036 and a CCL26/Eotaxin-3 (/TH2, 1.00E2 nM) of -0.132. It also gave a CD38 (/TH2, 1.00E2 nM) of -0.00367, a CD40 (/TH2, 1.00E2 nM) of -0.095 and a CD69 (/TH2, 1.00E2 nM) of -0.007. It also gave a CD87/uPAR (/TH2, 1.00E2 nM) of -0.133, a CD106/VCAM-1 (/TH2, 1.00E2 nM) of 0.023 and a CXCL8/IL-8 (/TH2, 1.00E2 nM) of -0.038. For the same molecule, the CXCL9/MIG (/TH2, 1.00E2 nM) was 0.008, the “Collagen IV” value (/TH2, 1.00E2 nM) was 0.005 and the “PBMC Cytotoxicity” value (/TH2, 1.00E2 nM) was -0.011. The SRB (/TH2, 1.00E2 nM) was -0.080, the sIL-17A (/TH2, 1.00E2 nM) was 0.189 and the sIL-17F (/TH2, 1.00E2 nM) was 0.137. It also gave a CCL2/MCP-1 (/TH2, 1.00E3 nM) of -0.046, a CCL26/Eotaxin-3 (/TH2, 1.00E3 nM) of -0.134 and a CD38 (/TH2, 1.00E3 nM) of -0.012. It also gave a CD40 (/TH2, 1.00E3 nM) of -0.080, a CD69 (/TH2, 1.00E3 nM) of -0.021 and a CD87/uPAR (/TH2, 1.00E3 nM) of -0.141. The CD106/VCAM-1 (/TH2, 1.00E3 nM) was 0.028, the CXCL8/IL-8 (/TH2, 1.00E3 nM) was -0.057 and the CXCL9/MIG (/TH2, 1.00E3 nM) was 0.006. For the same molecule, the “Collagen IV” value (/TH2, 1.00E3 nM) was 0.010, the “PBMC Cytotoxicity” value (/TH2, 1.00E3 nM) was -0.023 and the SRB (/TH2, 1.00E3 nM) was -0.067. For the same molecule, the sIL-17A (/TH2, 1.00E3 nM) was 0.134, the sIL-17F (/TH2, 1.00E3 nM) was -0.079 and the CCL2/MCP-1 (/TH2, 1.00E4 nM) was -0.053. It also gave a CCL26/Eotaxin-3 (/TH2, 1.00E4 nM) of -0.136, a CD38 (/TH2, 1.00E4 nM) of -0.016 and a CD40 (/TH2, 1.00E4 nM) of -0.061. For the same molecule, the CD69 (/TH2, 1.00E4 nM) was -0.044, the CD87/uPAR (/TH2, 1.00E4 nM) was -0.146 and the CD106/VCAM-1 (/TH2, 1.00E4 nM) was 0.003. The CXCL8/IL-8 (/TH2, 1.00E4 nM) was -0.053, the CXCL9/MIG (/TH2, 1.00E4 nM) was 0.006 and the “Collagen IV” value (/TH2, 1.00E4 nM) was 0.012. For the same molecule, the “PBMC Cytotoxicity” value (/TH2, 1.00E4 nM) was -0.036, the SRB (/TH2, 1.00E4 nM) was -0.126 and the sIL-17A (/TH2, 1.00E4 nM) was 0.054. It also gave a sIL-17F (/TH2, 1.00E4 nM) of -0.082, a CCL26/Eotaxin-3 (BENo, 1.00E0 nM) of 0.067 and a CD54/ICAM-1 (BENo, 1.00E0 nM) of 0.017. It also gave a CD87/uPAR (BENo, 1.00E0 nM) of 0.077, a CXCL8/IL-8 (BENo, 1.00E0 nM) of 0.016 and a CXCL9/MIG (BENo, 1.00E0 nM) of 0.068. For the same molecule, the CXCL10/IP-10 (BENo, 1.00E0 nM) was 0.115, the CXCL11/I-TAC (BENo, 1.00E0 nM) was 0.039 and the EGFR (BENo, 1.00E0 nM) was 0.00071. For the same molecule, the HLA-DR (BENo, 1.00E0 nM) was 0.048, the IL-1alpha (BENo, 1.00E0 nM) was 0.048 and the “Keratin 8/18” value (BENo, 1.00E0 nM) was 0.051. The MMP-1 (BENo, 1.00E0 nM) was 0.028, the MMP-9 (BENo, 1.00E0 nM) was 0.043 and the PAI-I (BENo, 1.00E0 nM) was 0.010. For the same molecule, the SRB (BENo, 1.00E0 nM) was 0.002, the tPA (BENo, 1.00E0 nM) was 0.014 and the uPA (BENo, 1.00E0 nM) was 0.036. For the same molecule, the CCL26/Eotaxin-3 (BENo, 1.00E1 nM) was -0.035, the CD54/ICAM-1 (BENo, 1.00E1 nM) was -0.015 and the CD87/uPAR (BENo, 1.00E1 nM) was 0.086. It also gave a CXCL8/IL-8 (BENo, 1.00E1 nM) of -0.015, a CXCL9/MIG (BENo, 1.00E1 nM) of 0.025 and a CXCL10/IP-10 (BENo, 1.00E1 nM) of 0.020. The CXCL11/I-TAC (BENo, 1.00E1 nM) was 0.032, the EGFR (BENo, 1.00E1 nM) was -0.005 and the HLA-DR (BENo, 1.00E1 nM) was 0.084. For the same molecule, the IL-1alpha (BENo, 1.00E1 nM) was 0.021, the “Keratin 8/18” value (BENo, 1.00E1 nM) was 0.032 and the MMP-1 (BENo, 1.00E1 nM) was 0.022. The MMP-9 (BENo, 1.00E1 nM) was 0.026, the PAI-I (BENo, 1.00E1 nM) was 0.003 and the SRB (BENo, 1.00E1 nM) was 0.000675. It also gave a tPA (BENo, 1.00E1 nM) of -0.00178, a uPA (BENo, 1.00E1 nM) of 0.034 and a CCL26/Eotaxin-3 (BENo, 1.00E2 nM) of 0.029. It also gave a CD54/ICAM-1 (BENo, 1.00E2 nM) of -0.086, a CD87/uPAR (BENo, 1.00E2 nM) of 0.074 and a CXCL8/IL-8 (BENo, 1.00E2 nM) of 0.050. The CXCL9/MIG (BENo, 1.00E2 nM) was 0.027, the CXCL10/IP-10 (BENo, 1.00E2 nM) was 0.029 and the CXCL11/I-TAC (BENo, 1.00E2 nM) was 0.038. It also gave an EGFR (BENo, 1.00E2 nM) of -0.028, an HLA-DR (BENo, 1.00E2 nM) of 0.002 and an IL-1alpha (BENo, 1.00E2 nM) of 0.024. The “Keratin 8/18” value (BENo, 1.00E2 nM) was 0.019, the MMP-1 (BENo, 1.00E2 nM) was -0.044 and the MMP-9 (BENo, 1.00E2 nM) was -0.012. For the same molecule, the PAI-I (BENo, 1.00E2 nM) was -0.079, the SRB (BENo, 1.00E2 nM) was -0.00126 and the tPA (BENo, 1.00E2 nM) was -0.018. The uPA (BENo, 1.00E2 nM) was 0.039, the CCL26/Eotaxin-3 (BENo, 1.00E3 nM) was 0.016 and the CD54/ICAM-1 (BENo, 1.00E3 nM) was -0.027. For the same molecule, the CD87/uPAR (BENo, 1.00E3 nM) was 0.042, the CXCL8/IL-8 (BENo, 1.00E3 nM) was -0.000244 and the CXCL9/MIG (BENo, 1.00E3 nM) was 0.034. The CXCL10/IP-10 (BENo, 1.00E3 nM) was 0.016, the CXCL11/I-TAC (BENo, 1.00E3 nM) was 0.033 and the EGFR (BENo, 1.00E3 nM) was 0.028. The HLA-DR (BENo, 1.00E3 nM) was 0.049, the IL-1alpha (BENo, 1.00E3 nM) was 0.018 and the “Keratin 8/18” value (BENo, 1.00E3 nM) was 0.022. For the same molecule, the MMP-1 (BENo, 1.00E3 nM) was -0.000325, the MMP-9 (BENo, 1.00E3 nM) was -0.016 and the PAI-I (BENo, 1.00E3 nM) was -0.078.

Reference: publication PMC5224920, “Assessing the mechanism and therapeutic potential of modulators of the human Mediator complex-associated protein kinases” (eLife, 2016)
